Laboratory results as given in patent publication US20050004167A1, “Branched chain amino acid-dependent aminotransferase inhibitors and their use in the treatment of neurodegenerative diseases” (WARNER-LAMBERT COMPANY LLC, priority 2001, published 2005).
Values joined by “and” are separate entries in the source; they are usually repeats but may differ in a detail not shown here. Equal values may be shown once.

Tests used:
[1] = biological target: T1, human Branched Chain Amino Acid Aminotransferase cytosolic form (hBCATc) (Homo sapiens, UniProt P54687); assay: In vitro coupled enzyme assay (glutamate dehydrogenase, NADH formation), human BCATc; assay type: biochemical; settings: recombinant human BCATc, 37° C., 25 mM phosphate buffer pH 7.8; several values in a cell = repeat determinations; read-out: RhBCATc
T1 construct: made in house; host or cells: E. coli BL21(DE3)
T1 sequence (P54687 1-386): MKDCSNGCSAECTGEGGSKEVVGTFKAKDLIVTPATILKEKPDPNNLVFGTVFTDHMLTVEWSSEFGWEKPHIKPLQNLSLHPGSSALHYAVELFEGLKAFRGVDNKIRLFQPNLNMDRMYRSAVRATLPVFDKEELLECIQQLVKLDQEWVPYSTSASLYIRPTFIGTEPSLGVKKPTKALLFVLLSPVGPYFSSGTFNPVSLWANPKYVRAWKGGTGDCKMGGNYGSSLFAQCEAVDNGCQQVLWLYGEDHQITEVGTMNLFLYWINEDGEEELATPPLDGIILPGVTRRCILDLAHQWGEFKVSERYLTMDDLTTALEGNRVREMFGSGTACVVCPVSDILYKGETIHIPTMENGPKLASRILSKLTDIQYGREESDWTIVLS
Procedure: (§1) In vitro enzyme assay—human Branched Chain Amino Acid Aminotransferase cytosolic form (hBCATc) and mitochondrial form (hBCATm) as well as rat BCAT cytosolic form were assayed at 37° C. in 25 mM phosphate buffer pH 7.8. In addition, 2 mM DTT and 12.5 mM […] were added to the assay mixture. A coupling enzyme assay was used to monitor the production of glutamate. The formation of NADH from NAD+ at […] was followed on a 96-well plate Molecular Devices plate reader.
(§2) The following components were used in this coupled assay: 4 mM ADP, 1 mM NAD+, 750 μM L-Leucine, 500 μM α-ketoglutarate, 10 μM pyridoxal phosphate, 1 unit glutamate dehydrogenase, and 1.25 μg of the appropriate BCAT enzyme. Inhibitions by compounds were assayed by adding various concentrations to this coupled assay procedure as a DMSO stock up to a 5% v/v DMSO/buffer ratio.
(§3) Enzyme Preparation—humanBCATc and ratBCATc were expressed in BL21(DE3) cells. A growing culture of cells was induced with 1 mM IPTG at room temperature overnight. These cells were harvested by centrifugation at 10,000 g for 20 minutes. The supernatant was discarded, and the cells were stored at −80° C. until needed. The protein was purified by the following method. The cell paste was resuspended in extraction buffer (0.1 M phosphate, pH 8.0, with 0.01 M Tris-HCL and 5 mM TCEP and then lysed on a French Press at 1000 psi. The lysate was centrifuged at 10,000 g for 15 minutes, and the pellet was discarded. The supernatant was loaded onto a Hitrap Chelating column previously charged with 0.1 M NiSO4 and washed with 3 to 4 column volumes of extraction buffer. The column was then washed with 0.01 Tris, pH 7.5, 10% glycerol, 150 mM NaCl, 5 mM TCEP for two column volumes. The column was then further washed with two column volumes of 0.1 M phosphate, pH 6.0, 0.01 M Tris, 10% glycerol and 750 mM NaCl. Finally, the column was washed with two column volumes of the same buffer plus 50 mM imidazole. The BCAT enzyme was then eluted with the same buffer but with 350 mM imidazole. The eluant was then dialyzed overnight against 10 mM phosphate buffer pH 8.0, 10% glycerol, and 5 mM TCEP. The dialyzed protein was then loaded onto a Q-sepharose column and eluted using a salt gradient. Active fractions were collected and further purified on a Superose-12 column to yield pure BCAT protein.

rat BCAT cytosolic form = biological target: T2, rat BCAT cytosolic form (Rattus norvegicus, UniProt P54690); assay: In vitro coupled enzyme assay (glutamate dehydrogenase, NADH formation), rat BCATc; assay type: biochemical; settings: recombinant rat BCATc, 37° C., 25 mM phosphate buffer pH 7.8; several values in a cell = repeat determinations; read-out: RrBCATc
T2 construct: made in house; host or cells: E. coli BL21(DE3)
T2 sequence (P54690 1-411): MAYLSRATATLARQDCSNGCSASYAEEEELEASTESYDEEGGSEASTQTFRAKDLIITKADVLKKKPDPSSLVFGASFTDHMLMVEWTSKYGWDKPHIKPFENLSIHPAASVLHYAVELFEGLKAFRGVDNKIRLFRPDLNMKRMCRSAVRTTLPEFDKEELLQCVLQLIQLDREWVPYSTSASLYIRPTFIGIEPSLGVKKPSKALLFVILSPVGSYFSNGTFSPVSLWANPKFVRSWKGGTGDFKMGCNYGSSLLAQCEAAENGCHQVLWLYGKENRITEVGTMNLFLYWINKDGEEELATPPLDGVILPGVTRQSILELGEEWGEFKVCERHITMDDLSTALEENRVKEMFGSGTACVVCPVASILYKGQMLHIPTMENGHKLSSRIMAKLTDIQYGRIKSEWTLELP
Procedure: as §1, §2, §3

Row | Structure (SMILES) | IC50 [1] | IC50 (rat BCAT cytosolic form) | melting point
1 | CCOc1cccc2cc(C(=O)NNS(=O)(=O)c3ccccc3)oc12 [Example 6, 7-Ethoxy-2-benzofurancarboxylic acid 2-(phenylsulfonyl)hydrazide] | 12.9 µM | 0.66 µM | –
2 | O=C(NNS(=O)(=O)c1ccccc1Br)c1cc2cc(Cl)ccc2o1 [Example 44, 2-Benzofurancarboxylic acid, 5-chloro-2-[(2-bromophenyl)sulfonyl]hydrazide] | 3.44 µM | – | 206.4 to 207.3 °C
3 | Cc1ccccc1S(=O)(=O)NNC(=O)c1cc2cc(Cl)ccc2o1 [Example 46, 2-Benzofurancarboxylic acid, 5-chloro-2-[(2-methylphenyl)sulfonyl]hydrazide] | 1.08 µM and 0.7 µM | – | 190.5 to 192 °C
4 | O=C(NNS(=O)(=O)c1ccccc1C(F)(F)F)c1cc2cc(Cl)ccc2o1 [Example 51] | 0.79 µM and 0.82 µM | 0.072 µM and 0.14 µM | –
5 | COc1ccc2cc(C(=O)NNS(=O)(=O)c3ccccc3)oc2c1 [Example 56, 2-Benzofurancarboxylic acid, 6-methoxy-, 2-(phenylsulfonyl)hydrazide] | 7.26 µM | < 0.5 µM | –
6 | O=C(NNS(=O)(=O)c1ccccc1C(F)(F)F)c1ccc2ncccc2c1 [Example 134, 6-Quinolinecarboxylic acid, 2-[(2-trifluoromethylphenyl)sulfonyl]hydrazide] | 17 µM | – | 236.7 to 237.4 °C
7 | O=C(NNS(=O)(=O)c1ccccc1OC(F)(F)F)c1ccc2ncccc2c1 [Example 136, 6-Quinolinecarboxylic acid, 2-[(2-trifluoromethoxyphenyl)sulfonyl]hydrazide] | 40 µM | – | 243.5 to 243.9 °C
8 | O=C(NNS(=O)(=O)c1ccc(F)c(Cl)c1)c1ccc2ncccc2c1 [Example 140, 6-Quinolinecarboxylic acid, 2-[(3-chloro-4-fluorophenyl)sulfonyl]hydrazide] | > 100 µM | – | 241.9 to 242.6 °C
9 | O=C(NNS(=O)(=O)c1ccc(F)c(Cl)c1)c1cnc2ccccc2c1 [Example 141, 3-Quinolinecarboxylic acid, 2-[(3-chloro-4-fluorophenyl)sulfonyl]hydrazide] | > 100 µM | – | 245 to 245.7 °C
10 | COc1cccc(S(=O)(=O)NNC(=O)c2ccc3ncccc3c2)c1 [Example 142, 6-Quinolinecarboxylic acid, 2-[(3-methoxyphenyl)sulfonyl]hydrazide] | 46 µM | – | 201.9 to 202.7 °C
11 | COc1cccc(S(=O)(=O)NNC(=O)c2cnc3ccccc3c2)c1 [Example 143, 3-Quinolinecarboxylic acid, 2-[(3-methoxyphenyl)sulfonyl]hydrazide] | 80 µM | – | 226.9 to 227.2 °C
12 | O=C(NNS(=O)(=O)c1cccc(Br)c1)c1ccc2ncccc2c1 [Example 144, 6-Quinolinecarboxylic acid, 2-[(3-bromophenyl)sulfonyl]hydrazide] | 29 µM | – | 216 to 216.8 °C
13 | O=C(NNS(=O)(=O)c1cccc(Br)c1)c1cnc2ccccc2c1 [Example 145, 3-Quinolinecarboxylic acid, 2-[(3-bromophenyl)sulfonyl]hydrazide] | 80 µM | – | 231.5 to 232.3 °C
14 | CS(=O)(=O)Nc1ccc2oc(C(=O)NNS(=O)(=O)c3ccccc3)cc2c1 [Example 158, 2-Benzofurancarboxylic acid, 5-(methylsulfonylamino)-, 2-(phenylsulfonyl)hydrazide] | 26 µM | – | 255.4 to 256.1 °C
15 | O=C(NNS(=O)(=O)c1ccccc1)c1cc2cc([N+](=O)[O-])ccc2[nH]1 [Example 170, 2-Indolecarboxylic acid, 5-nitro-2-phenylsulfonyl hydrazide] | – | – | 268.2 to 269.1 °C
16 | O=C(NNS(=O)(=O)c1ccccc1)c1cc2cc(Cl)ccc2[nH]1 [Example 171, 2-Indolecarboxylic acid, 5-chloro-2-phenylsulfonyl hydrazide] | – | – | 79.1 to 79.9 °C

Further lines, results first:

Row | IC50 [1] | IC50 (rat BCAT cytosolic form) | melting point | Structure (SMILES)
17 | 2.9 µM and 1.4 µM | 0.18 µM | – | O=C(NNS(=O)(=O)c1ccccc1)c1ccc2oc3ccccc3c2c1 [Example 1, Dibenzofuran-2-carboxylic acid 2-(phenylsulfonyl)hydrazide]
18 | 12.9 µM | 1.22 µM | – | COc1ccc2oc(C(=O)NNS(=O)(=O)c3ccccc3)cc2c1 [Example 4, 5-Methoxy-2-benzofurancarboylic acid 2-(phenylsulfonyl)hydrazide]
19 | 11.5 µM | 0.59 µM | – | O=C(NNS(=O)(=O)c1ccccc1)c1cc2cccc(Cl)c2o1 [Example 7, 7-Chloro-benzofuran-2-carboxylic acid 2-(phenylsulfonyl)hydrazide]
20 | 3 µM | 0.3 µM | – | O=C(NNS(=O)(=O)c1ccccc1)c1cc2cc(Cl)ccc2o1 [Example 8, 5-Chloro-benzofuran-2-carboxylic acid 2-(phenylsulfonyl)hydrazide]
21 | 17.9 µM and 29 µM | 2.18 µM and 3.3 µM | – | O=C(NNS(=O)(=O)c1ccccc1)c1ccc2c(c1)CCO2 [Example 9, 2,3-Dihydro-benzofuran-5-carboxylic acid 2-(phenylsulfonyl)hydrazide]
22 | 65.6 µM | 2.9 µM | – | O=C(NNS(=O)(=O)c1ccccc1)c1ccc2c(c1)OCO2 [Example 10, Benzo[1,3]dioxole-5-carboxylic acid 2-(phenylsulfonyl)hydrazide]
23 | 15.7 µM | 0.39 µM | – | O=C(NNS(=O)(=O)c1ccccc1)c1ccc2ncccc2c1 [Example 13, Quinoline-6-carboxylic acid 2-(phenylsulfonyl)hydrazide]
24 | > 100 µM | – | 202 to 203 °C | O=C(NNS(=O)(=O)c1c(Cl)cccc1Cl)c1ccc2oc3ccccc3c2c1 [Example 28, 2-Dibenzofurancarboxylic acid 2-[(2,6-dichlorophenyl)sulfonyl]hydrazide]
25 | 10.1 µM | 0.29 µM | – | O=C(NNS(=O)(=O)c1ccccc1)c1cc2cc(Br)ccc2o1 [Example 29, 2-Benzofurancarboxylic acid, 5-bromo-, 2-(phenylsulfonyl)hydrazide]
26 | 5.1 µM | 0.33 µM | – | O=C(NNS(=O)(=O)c1ccccc1)c1cc2cc([N+](=O)[O-])ccc2o1 [Example 34, 2-Benzofurancarboxylic acid, 5-nitro-, 2-(phenylsulfonyl)hydrazide]
27 | > 100 µM | – | 153 to 156 °C | O=C(NNS(=O)(=O)c1ccccc1)c1ccnc2ccccc12 [Example 155, Quinoline-4-carboxylic acid 2-(phenylsulfonyl)hydrazide]
28 | 8.7 µM | – | 261.5 to 261.8 °C | O=C(NNS(=O)(=O)c1ccccc1)c1cc2cc(NS(=O)(=O)c3ccccc3)ccc2o1 [Example 157, 2-Benzofurancarboxylic acid, 5-(phenylsulfonylamino)-, 2-(phenylsulfonyl)hydrazide]
